Earlier results as cited in PubChem BioAssay AID1259409 (Chemical Carcinogenesis Research Information System (CCRIS), 2018).

Test system: rodent chemically induced tumor inhibition, incidence and multiplicity
Test: CCRIS tumor inhibitor studies

Row | Structure (SMILES) | tumour outcome (control, treated, inhibition, significance) (Carcinogen: AZOXYMETHANE, 25843-45-2, Dose [Inhibitor]: 0, 0.02% IN DIET IN WK 1-3 OF STUDY FOLLOWED BY BASAL DIET FOR DURATION OF STUDY (STUDY DURATION: 1 YR), Route [Inhibitor]: ORAL, Species: RAT, Strain/Sex: F344/MALE, Target Tissue: Type of Lesion: LARGE INTESTINE: ADENOCARCINOMA, Dose [Carcinogen]: 15 MG/KG BW 1/WK IN WK 1 AND 2 OF STUDY, Promoter: NONE USED) | tumour outcome (control, treated, inhibition, significance) (Carcinogen: AZOXYMETHANE, 25843-45-2, Dose [Inhibitor]: 0, 0.02% IN DIET IN WK 1-3 OF STUDY FOLLOWED BY BASAL DIET FOR DURATION OF STUDY (STUDY DURATION: 1 YR), Route [Inhibitor]: ORAL, Species: RAT, Strain/Sex: F344/MALE, Target Tissue: Type of Lesion: LARGE INTESTINE: ADENOMA, Dose [Carcinogen]: 15 MG/KG BW 1/WK IN WK 1 AND 2 OF STUDY, Promoter: NONE USED) | tumour outcome (control, treated, inhibition, significance) (Carcinogen: AZOXYMETHANE, 25843-45-2, Dose [Inhibitor]: 0, 0.02% IN DIET IN WK 1-3 OF STUDY FOLLOWED BY BASAL DIET FOR DURATION OF STUDY (STUDY DURATION: 1 YR), Route [Inhibitor]: ORAL, Species: RAT, Strain/Sex: F344/MALE, Target Tissue: Type of Lesion: SMALL INTESTINE: ADENOCARCINOMA, Dose [Carcinogen]: 15 MG/KG BW 1/WK IN WK 1 AND 2 OF STUDY, Promoter: NONE USED) | tumour outcome (control, treated, inhibition, significance) (Carcinogen: 7,12-DIMETHYLBENZ[A]ANTHRACENE, 57-97-6, Dose [Inhibitor]: 10 UMOL APPLIED 30-40 MIN BEFORE EACH TPA TREATMENT AND CONCURRENTLY WITH TPA (STUDY DURATION: 18 WK), Route [Inhibitor]: DERMAL, Species: MOUSE, Strain/Sex: CD-1/FEMALE, Target Tissue: Type of Lesion: SKIN: PAPILLOMA, Dose [Carcinogen]: 200 NMOL ONCE, Promoter: 12-O-TETRADECANOYLPHORBOL-13-ACETATE, 16561-29-8) | tumour outcome (control, treated, inhibition, significance) (Carcinogen: N-NITROSODIETHYLAMINE, 55-18-5, 2-ACETYLAMINOFLUORENE, 53-93-6, CARBON TETRACHLORIDE, 56-23-5, Carcinogen: N-NITROSODIETHYLAMINE, 55-18-5, 2-ACETYLAMINOFLUORENE, 53-93-6, CARBON TETRACHLORIDE, 56-23-5, Dose [Inhibitor]: 0, 0.75% IN DIET FOR 29 WK ADMINISTERED TO RATS BEARING PERSISTENT NODULES FOLLOWING CARCINOGEN TREATMENT (STUDY DURATIO, Route [Inhibitor]: ORAL, Species: RAT, Strain/Sex: F344/MALE, Target Tissue: Type of Lesion: LIVER: HEPATOCELLULAR CARCINOMA, Dose [Carcinogen]: 200 MG/KG BW DEN ONCE, 0.002% 2-AAF IN DIET FOR 2 WK, 1 MG/KG BW CCL4 MIDWAY IN 2-AAF TREATMENT, Dose [Carcinogen]: 200 MG/KG BW DEN ONCE, 0.002% 2-AAF IN DIET FOR 2 WK, 1 MG/KG BW CCL4 MIDWAY IN 2-AAF TREATMENT, Promoter: NONE USED) | tumour outcome (control, treated, inhibition, significance) (Carcinogen: N-NITROSODIETHYLAMINE, 55-18-5, 2-ACETYLAMINOFLUORENE, 53-93-6, CARBON TETRACHLORIDE, 56-23-5, Carcinogen: N-NITROSODIETHYLAMINE, 55-18-5, 2-ACETYLAMINOFLUORENE, 53-93-6, CARBON TETRACHLORIDE, 56-23-5, Dose [Inhibitor]: 0, 0.75% IN DIET FOR 29 WK ADMINISTERED TO RATS BEARING PERSISTENT NODULES FOLLOWING CARCINOGEN TREATMENT (STUDY DURATIO, Route [Inhibitor]: ORAL, Species: RAT, Strain/Sex: F344/MALE, Target Tissue: Type of Lesion: LIVER: HEPATOCELLULAR CARCINOMA, Dose [Carcinogen]: 200 MG/KG BW DEN ONCE, 0.002% 2-AAF IN DIET FOR 2 WK, 1 ML/KG BW CCL4 MIDWAY IN 2-AAF TREATMENT, Dose [Carcinogen]: 200 MG/KG BW DEN ONCE, 0.002% 2-AAF IN DIET FOR 2 WK, 1 ML/KG BW CCL4 MIDWAY IN 2-AAF TREATMENT, Promoter: PHENOBARBITAL, 50-06-6)
1 | CC(C)=CC[C@@H](O)C1=CC(=O)c2c(O)ccc(O)c2C1=O | 13/27 (48%), 6/20 (30%), 38%, not significant | 6/27 (22%), 4/20 (20%), 9%, not significant | 6/27 (22%), 1/20 (5%), 77%, not significant |  |  | 
2 | O=C(CBr)c1ccc(Br)cc1 |  |  |  | 96%, 57%, 41%, not calculated | 7/8 (88%), 11/11 (100%), -12%, not significant | 12/12 (100%), 13/14 (93%), 7%, not significant
